# Laboratory results: ChEMBL document CHEMBL3885861, “Open TG-GATES”
# Species: Rattus norvegicus
# Test: Open TG-GATES - Regimen: Single
# Type: toxicity, organism-based, Sprague-Dawley
# Design: regimen Single, gender Male, age 6 weeks
# Conditions: in vivo, po, 400 mg/kg, route gavage, dose level Low; for APTT / Bas / Eos / Fbg / Hb / Ht / Lym / MCH / MCHC / MCV / Mono / Neu / PT / Plat / RBC / Ret / WBC: tissue Blood; for KIDNEY_L / KIDNEY_R / KIDNEY_TOTAL: tissue Kidney; for LIVER: tissue Liver; for A/G / ALP / ALT / AST / BUN / CRE / Ca / Cl / DBIL / GLC / IP / K / LDH / Na / PL / RALB / TBIL / TC / TG / TP / gamma-GTP: tissue Plasma
structure (smiles),measurement,setting,value
CCO [ALCOHOL],TERMINAL_BW,3 h,202.6 g
same,APTT,3 h,16.4 s
same,Bas,3 h,0%
same,Eos,3 h,1%
same,Fbg,3 h,202.8 mg/dL
same,Hb,3 h,13.7 g/dL
same,Ht,3 h,40.7%
same,Lym,3 h,81.2%
same,MCH,3 h,21.8 pg
same,MCHC,3 h,33.6%
same,MCV,3 h,64.7 fL
same,Mono,3 h,5.6%
same,Neu,3 h,12.2%
same,PT,3 h,12 s
same,Plat,3 h,115.5 x10_4/uL
same,RBC,3 h,628.6 x10_4/ul
same,Ret,3 h,10%
same,WBC,3 h,77.8 x10_2/uL
same,KIDNEY_L,3 h,0.9 g
same,KIDNEY_R,3 h,0.9 g
same,KIDNEY_TOTAL,3 h,1.8 g
same,LIVER,3 h,9.6 g
same,A/G,3 h,2.5
same,ALP,3 h,1037.2 IU/L
same,ALT,3 h,36.2 IU/L
same,AST,3 h,69 IU/L
same,BUN,3 h,13.8 mg/dL
same,CRE,3 h,0.5 mg/dL
same,Ca,3 h,10.7 mg/dL
same,Cl,3 h,104.4 meq/L
same,DBIL,3 h,0.012 mg/dL
same,GLC,3 h,195.8 mg/dL
same,IP,3 h,9.3 mg/dL
same,K,3 h,4.4 meq/L
same,LDH,3 h,117.6 IU/L
same,Na,3 h,139.8 meq/L
same,PL,3 h,140.4 mg/dL
same,RALB,3 h,3.9 g/dL
same,TBIL,3 h,0.4 mg/dL
same,TC,3 h,76.4 mg/dL
same,TG,3 h,66 mg/dL
same,TP,3 h,5.4 g/dL
same,gamma-GTP,3 h,1.2 IU/L
same,TERMINAL_BW,6 h,202.6 g
same,APTT,6 h,17.9 s
same,Bas,6 h,0%
same,Eos,6 h,1%
same,Fbg,6 h,220.2 mg/dL
same,Hb,6 h,13.8 g/dL
same,Ht,6 h,41.1%
same,Lym,6 h,70.4%
same,MCH,6 h,21.7 pg
same,MCHC,6 h,33.6%
same,MCV,6 h,64.6 fL
same,Mono,6 h,6.6%
same,Neu,6 h,22.4%
same,PT,6 h,11.8 s
same,Plat,6 h,114.6 x10_4/uL
same,RBC,6 h,636.6 x10_4/ul
same,Ret,6 h,10.1%
same,WBC,6 h,98 x10_2/uL
same,KIDNEY_L,6 h,0.9 g
same,KIDNEY_R,6 h,0.9 g
same,KIDNEY_TOTAL,6 h,1.8 g
same,LIVER,6 h,9.6 g
same,A/G,6 h,2.3
same,ALP,6 h,802 IU/L
same,ALT,6 h,29.8 IU/L
same,AST,6 h,61.8 IU/L
same,BUN,6 h,11.2 mg/dL
same,CRE,6 h,0.5 mg/dL
same,Ca,6 h,10.5 mg/dL
same,Cl,6 h,105 meq/L
same,DBIL,6 h,0.068 mg/dL
same,GLC,6 h,197.2 mg/dL
same,IP,6 h,9.8 mg/dL
same,K,6 h,4.7 meq/L
same,LDH,6 h,90.2 IU/L
same,Na,6 h,139.6 meq/L
same,PL,6 h,135.4 mg/dL
same,RALB,6 h,3.8 g/dL
same,TBIL,6 h,0.4 mg/dL
same,TC,6 h,75 mg/dL
same,TG,6 h,53.2 mg/dL
same,TP,6 h,5.4 g/dL
same,gamma-GTP,6 h,1.8 IU/L
same,TERMINAL_BW,9 h,203.1 g
same,APTT,9 h,18.5 s
same,Bas,9 h,0%
same,Eos,9 h,1.4%
same,Fbg,9 h,205 mg/dL
same,Hb,9 h,13.4 g/dL
same,Ht,9 h,40.1%
same,Lym,9 h,70.4%
same,MCH,9 h,21.7 pg
same,MCHC,9 h,33.5%
same,MCV,9 h,64.7 fL
same,Mono,9 h,7.6%
same,Neu,9 h,20.4%
same,PT,9 h,12 s
same,Plat,9 h,110.8 x10_4/uL
same,RBC,9 h,619 x10_4/ul
same,Ret,9 h,10.4%
same,WBC,9 h,90.1 x10_2/uL
same,KIDNEY_L,9 h,0.9 g
same,KIDNEY_R,9 h,0.9 g
same,KIDNEY_TOTAL,9 h,1.8 g
same,LIVER,9 h,8.6 g
same,A/G,9 h,2.9
same,ALP,9 h,826.6 IU/L
same,ALT,9 h,30.2 IU/L
same,AST,9 h,63 IU/L
same,BUN,9 h,12.8 mg/dL
same,CRE,9 h,0.5 mg/dL
same,Ca,9 h,10.9 mg/dL
same,Cl,9 h,105.6 meq/L
same,DBIL,9 h,0.038 mg/dL
same,GLC,9 h,199.4 mg/dL
same,IP,9 h,9.9 mg/dL
same,K,9 h,4.5 meq/L
same,LDH,9 h,106.4 IU/L
same,Na,9 h,137 meq/L
same,PL,9 h,137.4 mg/dL
same,RALB,9 h,4.1 g/dL
same,TBIL,9 h,0.4 mg/dL
same,TC,9 h,79.4 mg/dL
same,TG,9 h,37.2 mg/dL
same,TP,9 h,5.5 g/dL
same,gamma-GTP,9 h,1.8 IU/L
same,TERMINAL_BW,24 h,214.8 g
same,APTT,24 h,16.9 s
same,Bas,24 h,0%
same,Eos,24 h,1.6%
same,Fbg,24 h,196.4 mg/dL
same,Hb,24 h,13.2 g/dL
same,Ht,24 h,39.2%
same,Lym,24 h,75%
same,MCH,24 h,21.3 pg
same,MCHC,24 h,33.7%
same,MCV,24 h,63.3 fL
same,Mono,24 h,7.2%
same,Neu,24 h,17%
same,PT,24 h,11.5 s
same,Plat,24 h,122.1 x10_4/uL
same,RBC,24 h,619 x10_4/ul
same,Ret,24 h,10.5%
same,WBC,24 h,85 x10_2/uL
same,KIDNEY_L,24 h,1 g
same,KIDNEY_R,24 h,1 g
same,KIDNEY_TOTAL,24 h,2 g
same,LIVER,24 h,9.9 g
same,A/G,24 h,2.6
same,ALP,24 h,906 IU/L
same,ALT,24 h,41 IU/L
same,AST,24 h,65.4 IU/L
same,BUN,24 h,17.8 mg/dL
same,CRE,24 h,0.5 mg/dL
same,Ca,24 h,11 mg/dL
same,Cl,24 h,104.4 meq/L
same,DBIL,24 h,0.018 mg/dL
same,GLC,24 h,201 mg/dL
same,IP,24 h,8.1 mg/dL
same,K,24 h,4.7 meq/L
same,LDH,24 h,103.6 IU/L
same,Na,24 h,139 meq/L
same,PL,24 h,142 mg/dL
same,RALB,24 h,4 g/dL
same,TBIL,24 h,0.4 mg/dL
same,TC,24 h,79.2 mg/dL
same,TG,24 h,61.4 mg/dL
same,TP,24 h,5.6 g/dL
same,gamma-GTP,24 h,1.6 IU/L
